Active and inactive are the calls of the source. The rule behind the calls is not given here.
Experiments:
[1] = Drug localization in mitochondria of human QBC939 cells at 4 uM incubated for 4 hrs in dark by mito-tracker green based confocal microscopic method; type: ADME; conditions: qbc939, 4 h
[2] = Induction of apoptosis in human QBC939 cells assessed as necrotic cells at 2 uM in presence of 2J/cm2 light irradiation measured after 24 hrs by annexin V-FITC and propidium iodide staining based flow cytometric analysis (reference value: 0.02 %); type: functional
[3] = Phototoxicity in ICR mouse assessed as back skin weight at 1 mg/kg, iv followed by 10 mW/cm2 light irradiation for 10 mins at 1 day after drug challenge and measured after 1 day of light irradiation by H and E staining based microscopic analysis (reference value: 34.3 +/- 2.1 mg); type: organism-based; conditions: in vivo, 48 h, time 2 day
QBC939 [4] = experiment: Photodynamic antitumour activity against human QBC939 cells xenografted in BABL/c nude mouse assessed as increase in apoptotic cells at 1 mg/kg, iv measured after 1 day of light irradiation by TUNEL assay; type: functional, organism-based
[5] = Induction of apoptosis in human QBC939 cells assessed as late apoptotic cells at 2 uM in presence of 2J/cm2 light irradiation measured after 24 hrs by annexin V-FITC and propidium iodide staining based flow cytometric analysis (reference value: 0.01 %); type: functional
[6] = Absorption property of the compound in DMF assessed as Q band maximum absorption wavelength by UV-visible spectrophotometric method; type: physicochemical
[7] = Emission property of compound in DMSO assessed as Q band emission wavelength by […]; type: physicochemical
[8] = Absorption property of compound in poly-oxyethylene castor oil and PBS assessed as Q band log absorption coefficient by UV-visible spectrophotometric method; type: physicochemical; conditions: buffer
[9] = Induction of singlet oxygen generation in DMF solution irradiated with 650 nanometer laser light in every 1 min by ESR assay; type: functional
[10] = Absorption property of the compound in DMF assessed as Q band log absorption coefficient by UV-visible spectrophotometric method; type: physicochemical
[11] = Phototoxicity in ICR mouse assessed as ear weight at 1 mg/kg, iv followed by 10 mW/cm2 light irradiation for 10 mins at 1 day after drug challenge and measured after 1 day of light irradiation by H and E staining based microscopic analysis (reference value: 12.4 +/- 1.5 mg); type: organism-based; conditions: in vivo, 48 h, time 2 day
QBC939 [12] = experiment: Photodynamic antitumor activity against human QBC939 cells xenografted in BALB/c nude mouse assessed as decrease in tumor weight at 1 mg/kg, iv under dark condition measured after 13 days; type: functional, organism-based; conditions: time 13.0 day
[13] = Induction of apoptosis in human QBC939 cells assessed as necrotic cells at 2 uM in presence of 2J/cm2 light irradiation measured after 2 hrs by annexin V-FITC and propidium iodide staining based flow cytometric analysis (reference value: 0.02 %); type: functional
[14] = Induction of apoptosis in human QBC939 cells assessed as late apoptotic cells at 2 uM in presence of 2J/cm2 light irradiation measured after 2 hrs by annexin V-FITC and propidium iodide staining based flow cytometric analysis (reference value: 0.01 %); type: functional
[15] = Dark toxicity in human QBC939 cells assessed as reduction in cell viability incubated under dark for 24 hrs measured after 24 hrs by MTT assay; type: cell-based; conditions: read-out: TC50
[16] = Phototoxicity in BALB/c nude mouse xenografted with QBC939 cells assessed as change in lung at 1 mg/kg, iv followed by laser light irradiation at 120 J/cm2 measured after 1 day of light irradiation by H and E staining based histological analysis; type: organism-based; conditions: in vivo, 24 h
[17] = Phototoxicity in ICR mouse assessed as neck skin weight at 1 mg/kg, iv followed by 10 mW/cm2 light irradiation for 10 mins at 1 day after drug challenge and measured after 1 day of light irradiation by H and E staining based microscopic analysis (reference value: 36.5 +/- 2.4 mg); type: organism-based; conditions: in vivo, 48 h, time 2 day
[18] = Induction of apoptosis in human QBC939 cells assessed as early apoptotic cells at 2 uM in presence of 2J/cm2 light irradiation measured after 24 hrs by annexin V-FITC and propidium iodide staining based flow cytometric analysis (reference value: 0.01 %); type: functional
QBC939 [19] = experiment: Photodynamic antitumor activity against human QBC939 cells xenografted in BALB/c nude mouse assessed as increase in tumor tissue damage at 1 mg/kg, iv followed by laser light irradiation at 120 J/cm2 measured after 1 day of light irradiation by H and E staining based histological analysis; type: functional, organism-based
[20] = Absorption property of the compound in DMSO assessed as Q band maximum absorption wavelength by UV-visible spectrophotometric method; type: physicochemical
[21] = Induction of apoptosis in human QBC939 cells assessed as necrotic cells at 2 uM by annexin V-FITC and propidium iodide staining based flow cytometric analysis; type: functional
[22] = Induction of singlet oxygen generation in DMSO assessed as bleaching rate at 10 uM under 650 nanometer light irradiation; type: functional
[23] = Photodynamic antitumor activity against human QBC939 cells xenografted in BALB/c nude mouse assessed as tumor weight at 1 mg/kg, iv followed by laser light irradiation at 120 J/cm2 measured after 13 days; type: functional; conditions: time 13 day
QBC939 [24] = experiment: Photodynamic antitumor activity against human QBC939 cells xenografted in BALB/c nude mouse assessed as morphological change in tumor tissue at 1 mg/kg, iv followed by laser light irradiation at 120 J/cm2 measured after 1 day of light irradiation by H and E staining based histological analysis; type: functional, organism-based
[25] = Absorption property of compound in poly-oxyethylene castor oil and PBS assessed as Q band maximum absorption wavelength by UV-visible spectrophotometric method; type: physicochemical; conditions: buffer
[26] = Drug uptake in nude mouse xenografted with QBC939 cells assessed as drug level in tumor tissue at 1 mg/kg, iv measured after 8 hrs by fluorescence imaging assay; type: ADME, organism-based, Neoplasm; conditions: in vivo
[27] = Phototoxicity against human QBC939 cells assessed as reduction in cell viability irradiated with 1 J/cm2 of 650 nanometer laser light preincubated for 24 hrs in dark and measured after 24 hrs by MTT assay; type: functional, cell-based; conditions: QBC939, light or radiation study
[28] = Phototoxicity in ICR mouse assessed as pathological changes 1 mg/kg, iv in presence of 10 mW/cm2 light irradiation for 10 mins at 1 day after drug challenge and measured after 1 day of light irradiation by H and E staining based microscopic analysis; type: organism-based; conditions: in vivo, 48 h, time 2 day
[29] = Drug uptake in human QBC939 cells at 4 uM by fluorescence spectrophotometer analysis; type: ADME, cell-based; conditions: qbc939, 4 µM
[30] = Drug localization in nucleus of human QBC939 cells at 4 uM incubated for 4 hrs in dark by Hoechst 33342 based confocal microscopic method; type: ADME, subcellular; conditions: qbc939, 4 h
[31] = Induction of apoptosis in human QBC939 cells assessed as early apoptotic cells at 2 uM in presence of 2J/cm2 light irradiation measured after 2 hrs by annexin V-FITC and propidium iodide staining based flow cytometric analysis (reference value: 0.01 %); type: functional
[32] = Induction of apoptosis in human QBC939 cells assessed as viable cells at 2 uM in presence of 2J/cm2 light irradiation measured after 24 hrs by annexin V-FITC and propidium iodide staining based flow cytometric analysis (reference value: 99.6 %); type: functional; conditions: QBC939, light or radiation study, read-out: Activity

**Q.** Which Drug uptake [1] does the source give for COC(=O)C1(C(=O)O)C2c3nc(c(-c4ccccc4)c4ccc([nH]4)c(-c4ccccc4)c4nc(c(-c5ccccc5)c5ccc([nH]5)c3-c3ccccc3)C=C4)C21 (configuration not stated) here?
**A.** Its Drug uptake is “Active”.

**Q.** What about the Activity [2] of the same compound?
**A.** Its Activity is 7.79%.

**Q.** What about the Activity [3] of the same compound?
**A.** Its Activity is 35.1 mg.

**Q.** What about the Activity (QBC939 [4]) of the same compound?
**A.** The Activity was “Active”.

**Q.** What about the Activity [5] of the same compound?
**A.** Its Activity is 69.12%.

**Q.** What about the Activity [6] of the same compound?
**A.** The Activity was 656 nm.

**Q.** What about the Activity [7] of the same compound?
**A.** Its Activity is 652 nm.

**Q.** What about the Activity [8] of the same compound?
**A.** The Activity was 4.2.

**Q.** What about the Activity [9] of the same compound?
**A.** The Activity was “Active”.

**Q.** And the Activity [10]?
**A.** The Activity was 3.02.

**Q.** What about the Activity [11] of the same compound?
**A.** Its Activity is 12.8 mg.

**Q.** And the Activity (QBC939 [12])?
**A.** Its Activity is “inactive”.

**Q.** And the Activity [13]?
**A.** The Activity was 10.73%.

**Q.** What about the Activity [14] of the same compound?
**A.** Its Activity is 14.73%.

**Q.** And the CC50 at 48 h [15]?
**A.** The CC50 at 48 h was > 8000 nM.

**Q.** And the Activity [16]?
**A.** Its Activity is “Non-Toxic”.

**Q.** What about the Activity [17] of the same compound?
**A.** The Activity was 37.9 mg.

**Q.** And the Activity [18]?
**A.** The Activity was 20.99%.

**Q.** And the Activity (QBC939 [19])?
**A.** The Activity was “Active”.

**Q.** And the Activity [20]?
**A.** Its Activity is 650 nm.

**Q.** And the Activity [21]?
**A.** Its Activity is 3.6%.

**Q.** What about the Activity [22] of the same compound?
**A.** Its Activity is “Active”.

**Q.** And the Activity [23]?
**A.** The Activity was 10%.

**Q.** What about the Activity (QBC939 [24]) of the same compound?
**A.** The Activity was “Active”.

**Q.** And the Activity [25]?
**A.** Its Activity is 655 nm.

**Q.** And the Drug uptake [26]?
**A.** The Drug uptake was “Active”.

**Q.** What about the IC50 [27] of the same compound?
**A.** Its IC50 is 1910 nM.

**Q.** And the Activity [28]?
**A.** Its Activity is “Non-Toxic”.

**Q.** And the Drug uptake [29]?
**A.** The Drug uptake was “Active”.

**Q.** What about the Drug uptake [30] of the same compound?
**A.** The Drug uptake was “Not Active”.

**Q.** What about the Activity [31] of the same compound?
**A.** Its Activity is 23.2%.

**Q.** What about the viability at 2 µM [32] of the same compound?
**A.** Its viability at 2 µM is 2.1%.

Source: ChEMBL document CHEMBL4680162, “Synthesis and pharmacological evaluation of chlorin derivatives for photodynamic therapy of cholangiocarcinoma” (Eur J Med Chem, 2020)
